# Legend:
# [1] = tested on: PBMC (peripheral blood mononuclear cells); assay: two-way mixed lymphocyte reaction (MLR); format: cell-based, human
# From the text: Various in vitro assays can be used to measure effects of the inventive compounds to module immune activity and have antitumor activity using a variety of cellular types. For example, a mixed lymphocyte reaction (MLR) provides a valuable screening tool to determine biological activity of each inventive compound. In the MLR, PBMCs (peripheral blood mononuclear cells) are obtained by drawing whole blood from healthy volunteers in a heparinized container and diluted with an equal volume of hanks balanced salt solution (HBSS). This mixture is layered on a sucrose density gradient, such as a Ficoll-Hypaque® gradient (specific gravity 1.08), and centrifuged at 1000×g for 25 minutes at room temperature or cooler. PBMC are obtained from a band at a plasma-Ficoll interface, separated and washed at least twice in a saline solution, such as HBSS. Contaminating red cells are lysed, such as by ACK lysis for 10 min at 37° C., and the PBMCs are washed twice in HBSS. The pellet of purified PBMCs is resuspended in complete medium, such as RPMI 1640 plus 20% human inactivated serum. Proliferative response of PBMC to allogeneic stimulation is determined in a two-way MLR performed in a 96-well microliter plate. […] At the conclusion of the incubation tritiated thymidine is added (for example, 1 μCi/well of 40 to 60 Ci/mmole) and proliferation determined by liquid scintillation counting. […]
# [2] = tested on: adhesion of activated U937 cells to HUVEC; assay: adhesion of IL-1α activated U937 cells to non-stimulated HUVEC; format: cell-based, human; settings: 250 μM pre-treatment of U937 cells
# Experimental: U937 cells were stimulated with various concentrations of IL-1-α with or without the addition of 250 µM CT1501R one hour prior to addition of IL-1-α. Twelve hours later, the U937 cells were stained with BCECF and allowed to adhere to HUVEC. FIG. 22 is the relative BCECF fluorescence (+/-SD) for each of the treatment groups.
# Murine peritoneal exudate cell macrophages (PEC) were isolated by perfusion of mouse peritoneum and plated into 96-well trays at 5×10^5 cells per well. Cells were stimulated with 5 μg/ml Salmonella abortus equi-derived endotoxin CLPS; Sigma Chemical Co., L-1887) or 50 ng/ml IL-1α (Genzyme; Cambridge, Mass.) with or without the addition of CT1501R added to the cultures one hour prior to addition of the stimulus. At various times thereafter, supernatants were removed and levels of either TNF-α or IL-1α were assayed using commercial 96-well microtiter immunoassay kits (Genzyme; TNF; Endogen, Boston, Mass.; IL-1α) according to manufacturer's specifications. […] After addition of […] Hanks Balanced Salt Solution (HBSS), the microtiter plate was then analyzed on a Millipore Cytofiuor fluorescent plate reader (excitation 488 nm; emission 525 nm). […]
# IL-1α = assay: mouse plasma IL-1α ELISA after endotoxin; format: in vivo, mice
# Experimental: FIG. 7 illustrates data from mouse plasma IL-1α ELISA measurements. Data were compiled from an average of duplicate ELISA measurements from a single experiment with each point representing pooled serum from three mice.
# (§1) For ELISA measurements of cytokine levels in plasma, blood was collected by retro-orbital or cardiac puncture of anesthetized mice, immediately centrifuged and the EDTA plasma stored at -70° C. Particulate free plasma was thawed on ice and cytokine levels determined utilizing commercial ELISA assays with normal mouse plasma used to generate standard curves. Murine tumor necrosis factor-α and interleukin-1α kits were purchased from Genzyme (Cambridge, Mass.) and Endogen (Boston, Mass.), respectively. Each data point was an average of two ELISA measurements made from EDTA serum pooled from three mice. The data summarized in Table 3 were compiled from two independent experiments; data from Table 4 and 5 were from single experiments of three mice per data point.
# (§2) In particular, peak levels observed at 6, 12 and 18 hours post endotoxin were decreased 1.2, 4.3 and 3.2-fold, respectively. Finally, IL-6 measurements were made in a similar manner (Table 6, FIG. 8).
# IL-6 = assay: mouse plasma IL-6 ELISA after endotoxin; format: in vivo, mice
# Experimental: FIG. 8 illustrates data from mouse plasma IL-6 ELISA measurements. Data are compiled from the average of duplicate ELISA measurements from a single experiment with each point representing pooled plasma from three mice.
# as §1, §2
# [3] = tested on: hematopoietic reconstitution following 5-FU; assay: 5-fluorouracil (5-FU) induced bone marrow suppression in mice; format: in vivo, Balb/C mice
# From the text: Groups of 4 mice were phlebotomized at each time point. The values on the graph represent the means ±1 SD.
# Groups of 4 mice were phlebotomized at each time point. The values on the group represent the means ±1 SD.
# Groups of 4 mice were sacrificed and had one femur harvested at each time point. The values on the graph represent the means ±1 SD of the mean number of colonies per each individual tested in triplicate cultures.
# Female Balb/C mice (VAF, Charles River Laboratories, 6-8 wks of age approximately 17.3-18.5 g) were treated with 5-FU at a dose of 200 mg/kg intraperitoneally (i.p.) in experiment 1 or 190 μg/kg in experiment 2. […] Mice (4 per group) were sacrificed starting 2 days after 5-FU by cardiac puncture under halothane anesthesia followed by cervical dislocation and had total white blood cell counts and differential counts performed. Platelet counts were performed using phase-contrast microscopy in duplicate. Femurs were harvested and the number of granulocyte-macrophage colony forming cells (CFU-GM) per femur were measured using a standard assay (Terry Fox Laboratories, Vancouver, British Columbia) using pokeweed mitogen spleen conditioned medium as the growth factor. Each femur was plated separately in triplicate and the mean and means for each experimental point was calculated. Standard deviations used for staffstidal analysis were deviations of the mean number of colonies measured for each femur.
# Experiment 2 was similar to experiment 1 with the following exceptions: (1) the dose of 5-FU was decreased to 185 mg/kg; (2) daily blood draws were performed between days 10 and 15; and (3) platelet counts were performed.
structure (smiles),measurement,setting,value
"C[C@@H](O)CCCCn1c(=O)c2c(ncn2C)n(C)c1=O [CT1501R, (R)-1-(5-hydroxyhexyl)-3,7-dimethylxanthine]",proliferative response of PBMC to allogeneic stimulation,[1],showed dose-response activity
same,IL-1α mediated increase in adhesion of U937 cells to HUVEC,[2],effectively blocked the IL-1α mediated increase in adhesion to HUVEC to near background levels
same,decrease of peak plasma IL-1α vs endotoxin only,IL-1α; 6 hours post endotoxin,1.2 fold
same,decrease of peak plasma IL-1α vs endotoxin only,IL-1α; 12 hours post endotoxin,4.3 fold
same,decrease of peak plasma IL-1α vs endotoxin only,IL-1α; 18 hours post endotoxin,3.2 fold
same,decrease of peak plasma IL-6 vs endotoxin only,IL-6; 3 hours post endotoxin,1.7 fold
same,decrease of peak plasma IL-6 vs endotoxin only,IL-6; 6 hours post endotoxin,2.0 fold
same,decrease of peak plasma IL-6 vs endotoxin only,IL-6; 12 hours post endotoxin,4.1 fold
same,increase in number of CFU-GM/femur during hematopoietic recovery vs control,[3]; 5-FU treated mice,approximately two-fold increase
same,CFU-GM/femur vs vehicle control and day 0,"[3]; experiment 1, day 13 (p=0.024 vs vehicle, p=0.05 vs day 0)",significantly more CFU-GM/femur on day 13
same,"ANC (absolute neutrophil count), mean ±SD","[3]; experiment 1, day 13 after 5-FU (control 180±10/mm^3, P=0.05)",440±17 /mm^3
same,WBC of 5-FU treated mice vs vehicle control,"[3]; experiment 1, days 6 and 10 (p=0.019 and 0.036)",significantly lower in vehicle treated controls than in CT1501R treated mice
same,WBC vs vehicle control,[3]; experiment 2,significantly higher WBC's
same,neutrophil recovery,[3]; experiment 2,Neutrophil recovery was accelerated
same,number of cells per femur during hematopoietic recovery vs control,[3]; experiment 2,number of cells per femur was increased
same,platelet count nadir and rate of recovery vs vehicle control,[3]; experiment 2,platelet count nadir and rate of recovery were also increased
same,"WBC and ANC, mice without 5-FU","[3]; i.p. bid, no 5-FU",remained within 1 SD of control values
same,"adverse effects, mice without 5-FU","[3]; i.p. bid, no 5-FU",no apparent adverse effects
same,"rise in ANC and CFU-GM/femur associated with vehicle injections, mice without 5-FU","[3]; no 5-FU, twice daily i.p. injections",prevented both the rise in ANC and rise in CFU-GM/femur

# Reference: patent publication US5621102A, “Process for preparing enantiomerically pure xanthine derivatives” (Cell Therapeutics, Inc., priority 1995, dated 1997)
